According to doi:10.1101/2024.08.25.609621 (bioRxiv, 2024):
Like-named read-outs stand apart in the source and are kept apart here.

Molecular target: SARS-CoV-2 NSP3 macrodomain (Mac1), P43 crystal form (Severe acute respiratory syndrome coronavirus 2, UniProt P0DTD1)
Assay type: binding
Settings: for 1-BDC: PanDDA background density correction; for Total number of conformations: ligand conformations modeled in Mac1 crystal structure; for 2*(1-BDC) (%): occupancy estimate from PanDDA 1-BDC
[1] = crystal soak concentration 10 mM, P43 crystals
[2] = crystal soak concentration 10 mM, DMSO background map
[3] = crystal soak concentration 20 mM, P43 crystals
[4] = crystal soak, soak concentration 10 mM
[5] = crystal soak, soak concentration 10 mM, TRUE = ligand hit
[6] = soak concentration 10 mM, DMSO background map
[7] = crystal structure with Mac1 determined (TRUE)
[8] = site of ligand in Mac1 crystal structure
[9] = soak concentration 5 mM, DMSO background map
[10] = X-ray crystal structure determined (TRUE)
[11] = crystal soak 10 mM, P43 crystals
[12] = crystal soak 10 mM, DMSO background map
[13] = site of ligand in X-ray crystal structure
[14] = crystal soak 10 mM, TFA/DMSO background map

Row | Compound | 1-BDC | Total number of conformations | 2*(1-BDC) (%) | Pandda run, overall: Hit [5] | PanDDA run, DMSO background map: 1-BDC [6] | PanDDA run, DMSO background map: Hit [6] | X-ray crystal structure [10] | Pandda run, overall: Hit [11] | Pandda run, overall: Modeled [11] | PanDDA run, DMSO background map: 1-BDC [12] | PanDDA run, DMSO background map: Hit [12] | Binding site [13] | other results
1 | CC1CCN(C(=O)c2ccc3c(c2)nc(CO)n3C)CC1C(=O)O (stereo not drawn) [AVI-348] | 0.25 | 1 | 50 |  |  |  |  |  |  |  |  |  | X-ray crystal structure (TRUE = crystal structure with ligand determined): TRUE; PanDDA run, DMSO background map: 1-BDC (crystal soak concentration 10 mM, DMSO background map, event 1): 0.25; Pandda run, overall: Hit [1]: TRUE; Pandda run, overall: Modeled [1]: TRUE; PanDDA run, DMSO background map: Hit [2]: TRUE; PanDDA run, DMSO background map: Modeled [2]: TRUE; PanDDA run, DMSO background map: Hit (crystal soak concentration 20 mM, DMSO background map): TRUE; PanDDA run, DMSO background map: 1-BDC (crystal soak concentration 20 mM, DMSO background map, event 1): 0.34; Pandda run, overall: Hit [3]: TRUE; Pandda run, overall: Modeling comment [3]: Duplicate, not modeled; Binding site (site of Mac1 where ligand bound in crystal structure): Adenosine
2 | OC[C@@H]1C[C@H](F)CN1c1ncnc2[nH]ccc12 [AVI-609] | 0.17 | 1 | 34 | TRUE | 0.17 | TRUE |  |  |  |  |  |  | Pandda run, overall: Modeled [4]: TRUE; X-ray crystallography: Binding site (site where the ligand is bound in the X-ray crystal structure): Adenosine
3 | NC(=O)C1(O)CCN(c2ncnc3[nH]ccc23)C1 (stereo not drawn) [AVI-611] | 0.22 | 2 | 44 | TRUE | 0.22 | TRUE |  |  |  |  |  |  | Pandda run, overall: Modeled [4]: TRUE; X-ray crystal structure [7]: TRUE; Binding site [8]: Adenosine
4 | CCC1(O)CCN(c2ncnc3[nH]ccc23)C1 (stereo not drawn) [AVI-612] | 0.17 | 1 | 34 |  |  |  |  |  |  |  |  |  | Pandda run, overall: Modeled (crystal soak, soak concentration 5 mM): TRUE; Pandda run, overall: Hit (crystal soak, soak concentration 5 mM, TRUE = ligand hit): TRUE; X-ray crystal structure [7]: TRUE; Binding site [8]: Adenosine; PanDDA run, DMSO background map: 1-BDC [9]: 0.17; PanDDA run, DMSO background map: Hit [9]: TRUE
5 | CN(C)C[C@@]1(O)CCCN(c2ncnc3[nH]ccc23)C1 [AVI-614] |  |  |  | TRUE | 0.17 | TRUE |  |  |  |  |  |  | Pandda run, overall: Modeling comment [4]: Weak density, not modeled
6 | O[C@@H]1CN(c2ncnc3[nH]ccc23)C[C@H]1F [AVI-616] | 0.2 | 1 | 40 | TRUE | 0.2 | TRUE |  |  |  |  |  |  | Pandda run, overall: Modeled [4]: TRUE; X-ray crystal structure [7]: TRUE; Binding site [8]: Adenosine
7 | O=C(O)C(F)(F)F.OC1c2ccccc2CC1Nc1ncnc2[nH]ccc12 (stereo not drawn) [AVI-3634] |  |  |  |  |  |  |  |  |  |  |  |  | Pandda run, overall: Modeling comment [4]: TFA only
8 | CCC(Nc1ncnc2[nH]ccc12)C(C)O (stereo not drawn) [AVI-3635] | 0.14 | 2 | 28 | TRUE | 0.23 | TRUE | TRUE | TRUE | TRUE | 0.14 | TRUE | Adenosine | 
9 | OCC(CC(F)(F)F)Nc1ncnc2[nH]ccc12 (stereo not drawn) [AVI-3637] | 0.23 | 1 | 46 | TRUE | 0.23 | TRUE | TRUE |  |  |  |  | Adenosine | Pandda run, overall: Modeled [4]: TRUE
10 | OCC(Nc1ncnc2[nH]ccc12)C1CCC1 (stereo not drawn) [AVI-3638] | 0.13 | 1 | 26 |  |  |  | TRUE | TRUE | TRUE | 0.13 | TRUE | Adenosine | 
11 | O=C(O)C(F)(F)F.O[C@H]1CCC[C@@H]1Nc1ncnc2[nH]ccc12 [AVI-3639] | 0.11 | 1 | 22 |  |  |  | TRUE | TRUE | TRUE | 0.11 | TRUE | Adenosine | 
12 | OCC(CC1CCC1)Nc1ncnc2[nH]ccc12 (stereo not drawn) [AVI-3641] | 0.18 | 1 | 36 |  |  |  | TRUE | TRUE | TRUE | 0.18 | TRUE | Adenosine | 
13 | OCC(CC(O)c1ccccc1)Nc1ncnc2[nH]ccc12 (stereo not drawn) [AVI-3642] | 0.17 | 1 | 34 |  |  |  | TRUE | TRUE | TRUE | 0.17 | TRUE | Adenosine | 
14 | CCC(CO)Nc1ncnc2[nH]ccc12 (stereo not drawn) [AVI-3643] | 0.16 | 1 | 32 |  |  |  | TRUE | TRUE | TRUE | 0.16 | TRUE | Adenosine | 
15 | C#CCC(CO)Nc1ncnc2[nH]ccc12 (stereo not drawn) [AVI-3644] | 0.18 | 1 | 36 |  |  |  | TRUE | TRUE | TRUE | 0.18 | TRUE | Adenosine | 
16 | O=C(O)C(F)(F)F.OCC(Nc1ncnc2[nH]ccc12)C1CCCO1 (stereo not drawn) [AVI-3645] |  |  |  |  |  |  |  | TRUE |  | 0.22 | TRUE |  | Pandda run, overall: Modeling comment [11]: Weak density, not modeled; PanDDA run, TFA/DMSO background map: 1-BDC [14]: 0.12; PanDDA run, TFA/DMSO background map: Hit [14]: TRUE
17 | OC1CCCN(c2ncnc3[nH]ccc23)C1 (stereo not drawn) [AVI-3646] | 0.22 | 1 | 44 |  |  |  |  | TRUE | TRUE | 0.22 | TRUE |  | X-ray crystal structure [7]: TRUE; Binding site [8]: Adenosine
18 | CC(C)(C)CC(CO)Nc1ncnc2[nH]ccc12 (stereo not drawn) [AVI-3648] | 0.13 | 1 | 26 |  |  |  | TRUE | TRUE | TRUE | 0.13 | TRUE | Adenosine | 
19 | OCC(Nc1ncnc2[nH]ccc12)C1CCCC1 (stereo not drawn) [AVI-3649] | 0.16 | 1 | 32 |  |  |  | TRUE | TRUE | TRUE | 0.16 | TRUE | Adenosine | 
